# pKi: −log10 of the molar value.
# Biological target: T1, CRF receptor (Rattus norvegicus, UniProt P35353)
# T1 construct: 100 μl of membrane suspension as prepared above to give a total reaction volume of 300 μl; from tissue; host or cells: rat cerebral cortex membrane homogenate
# T1 sequence (P35353 24-415): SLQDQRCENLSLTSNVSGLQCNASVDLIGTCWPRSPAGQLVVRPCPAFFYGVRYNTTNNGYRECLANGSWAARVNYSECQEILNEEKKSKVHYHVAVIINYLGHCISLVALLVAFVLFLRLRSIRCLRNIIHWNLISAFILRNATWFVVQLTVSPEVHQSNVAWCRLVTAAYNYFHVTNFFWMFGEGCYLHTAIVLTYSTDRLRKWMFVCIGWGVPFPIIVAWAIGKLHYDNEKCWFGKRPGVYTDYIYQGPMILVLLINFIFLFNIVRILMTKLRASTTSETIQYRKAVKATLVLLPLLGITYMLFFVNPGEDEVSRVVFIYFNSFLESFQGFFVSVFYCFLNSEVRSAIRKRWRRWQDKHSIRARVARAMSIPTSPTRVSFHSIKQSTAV
# Test: In vitro CRF receptor binding assay (competition with [125I] ovine CRF, rat cortex membranes)
# Conditions: competition with [125I] ovine CRF, 2 h at 22° C.; Ki classes; read-out: Inhibition Ki
# Experimental: In vitro Receptor Binding Assay
# Tissue Preparation: Male Sprague Dawley rats (180-200 g) were sacrificed by decapitation and the cortex was dissected on ice, frozen whole in liquid nitrogen and stored at −70° C. until use. On the day of assay, frozen tissue was weighed and homogenized in 20 volumes of ice cold buffer containing 50 mM Tris, 10 mM MgCl2, 2 mM EGTA, pH 7.0 at 22° C. using a Polytron (Brinkmann Instruments, Westbury, N.Y.; setting 6) for 20 s. The homogenate was centrifuged at 48,000× g for 10 min at 4° C. The supernatant was discarded, and the pellet was re-homogenized in the same volume of buffer and centrifuged at 48,000× g for 10 min at 4° C. The resulting pellet was resuspended in the above buffer to a final concentration of 20-40 mg original wet weight/mL and used in the assays described below.
# CRF Receptor Binding: Receptor binding assays were carried out essentially as described by E. B. De Souza, J. Neurosci. […]
# All assays were carried out at equilibrium for 2 h at 22° C. as described by E. B. De Souza, J. Neurosci. […] The reaction was terminated by centrifugation of the tubes in a Beckman microfuge for 5 min at 12,000× g. Aliquots of the supernatant were collected to determine the “free” radioligand concentration. The remaining supernatant was aspirated and the pellets washed gently with ice-cold PBS plus 0.01% Triton X-100; centrifuged again and monitored for bound radioactivity as described above. […] This program has the distinct advantage of fitting the raw experimental data on an untransformed coordinate system where errors are most likely to be normally distributed and uncorrelated with the independent variable. […] The parameters for the affinity constants (KD) and receptor densities (Bmax) are also provided along with statistics on the general “fit” of the estimated parameters to the raw data.
# Competition Curve Analysis
# The resulting pellets were surface washed twice by centrifugation with 1 mL of ice-cold phosphate buffered saline and 0.01% Triton X-100; the supernatants discarded and the pellets monitored for radioactivity at approximately 80% efficiency. The level of non-specific binding was defined in the presence of […] unlabeled rat/humanCRF (r/hCRF). Data from competition curves were analyzed by the program LIGAND. […] Routinely, the data were analyzed using a one- and two-site model comparing the “goodness of fit” between the models in order to accurately determine the Ki. Statistical analyses provided by LIGAND allowed the determination of whether a single-site or multiple-site model should be used.
# In Table 17; the Ki values were determined using the assay conditions described above.
row,pKi,Compound
1,> 6.30,"CCN(c1nc(C)cc(CN2CCOCC2)n1)c1ccc(C(C)C)cc1Br [compound 59, N-(2-bromo-4-(1-methylethyl)phenyl)-N-ethyl-6-methyl-4-(4-morpholinylmethyl)-2-pyrmidinamine]"
2,> 6.30,"CCN(c1nc(C)cc(C(=O)OC)n1)c1ccc(C(C)C)cc1Br [compound 61, Methyl 2-((2-bromo-4-(1-methylethyl)phenyl)ethylamino)-6-methyl-4-pyrimidinecarboxylate]"
3,5.00 to 5.70,"CCN(c1nc(C)cc(C(=O)N2CCN(C)CC2)n1)c1ccc(C(C)C)cc1Br [compound 63, N-(2-bromo-4-(1-methylethyl)phenyl)-N-ethyl-4-methyl-6-(4-methylpiperazinylcarbonyl)-2-pyrimidinamine]"

# Same assay, conditions: read-out: Inhibition Ki
row,pKi,Compound
1,> 6.30,CCN(c1nc(C)nc(N2CCOCC2)n1)c1c(OC)cc(OC)cc1OC [compound 239]
2,> 6.30,CCN(c1nc(C)cc(CN2CCN(c3ccccc3OC)CC2)n1)c1ccc(C(C)C)cc1Br [compound 275]
3,> 6.30,CCN(c1nc(C)cc(COc2ccc(-n3ccnc3)cc2)n1)c1ccc(C(C)C)cc1Br [compound 218]
4,> 6.30,CCOC(=O)C(C(=O)OCC)c1nc(C)nc(N(CC)c2ccc(C(C)C)cc2Br)n1 [compound 246]
5,5.70 to 6.30,CCN(c1nc(C)cc(NCCN(C)C)n1)c1ccc(C(C)C)cc1Br [compound 163]
6,> 6.30,CCN(c1nc(C)cc(OCc2ccccc2)n1)c1ccc(C(C)C)cc1Br [compound 149]
7,> 6.30,CCN(c1nc(C)cc(OCCCSC)n1)c1ccc(C(C)C)cc1Br [compound 150]
8,> 6.30,CCN(c1nc(C)cc(C(C)O)n1)c1ccc(C(C)C)cc1Br (centres unmarked) [compound 296]
9,> 6.30,"CCN(c1nc(C)cc(SC)n1)c1ccc(C(C)C)cc1Br [compound 140, N-(2-bromo-4-(1-methylethyl)phenyl)-N-ethyl-4-methyl-6-(thiomethyl)-2-pyrimidinamine]"
10,> 6.30,"CCN(c1nc(C)cc(COCCO)n1)c1ccc(C(C)C)cc1Br [compound 225, N-(2-Bromo-4-(1-methylethyl)phenyl)-N-ethyl-4-hydroxyethoxymethyl-6-methyl-2-pyrimidinamine]"
11,> 6.30,CCN(c1nc(C)cc(C(O)c2ccc(OC)cc2)n1)c1ccc(C(C)C)cc1Br (centres unmarked) [compound 292]
12,> 6.30,CCN(c1nc(C)cc(C(=O)NC)n1)c1ccc(C(C)C)cc1Br [compound 271]
13,> 6.30,CCN(CC)c1nc(C)nc(N(CC)c2ccc(C(C)C)cc2Br)n1 [compound 232]
14,> 6.30,"CCN(c1nc(C)cc([S+](C)[O-])n1)c1ccc(C(C)C)cc1Br (centres unmarked) [compound 160, N-(2-bromo-4-(1-methylethyl)phenyl)-N-ethyl-4-methyl-6-(thiomethyl)-2-pyrimidinamine, S-oxide]"
15,> 6.30,C=CCN(c1nc(C)cc(N2CCOCC2)n1)c1ccc(C(C)C)cc1Br [compound 17]
16,> 6.30,CCCCc1ccc(N(CC)c2nc(C)cc(C)n2)c(Br)c1 [compound 19]
17,5.70 to 6.30,Cc1cc(C)nc(N2CCCSc3cc(C(C)C)ccc32)n1 [compound 173]
18,> 6.30,CCN(c1nc(C)nc(N2CCOCC2)n1)c1ccc(C(C)C)cc1I [compound 136]
19,> 6.30,CCOc1ccc(N(CC)c2nc(C)cc(C)n2)c(Br)c1 [compound 201]
20,> 6.30,CCN(c1nc(C)cc(COc2ncccn2)n1)c1ccc(C(C)C)cc1Br [compound 213]
21,5.00 to 5.70,Cc1cc(C)nc(N(C)c2ccccc2I)n1 [compound 53]
22,> 6.30,"CCN(c1nc(C)cc(Cl)n1)c1ccc(C(C)C)cc1I [compound 167, N-(2-iodo4-(1-methylethyl)phenyl)-N-ethyl-4-chloro-6-methyl-2-pyrimidinamine]"
23,5.70 to 6.30,"Cc1ccc(N(C)c2nc(C)cc(C)n2)c(Br)c1 [compound 1, N-(2-bromo-4-methylphenyl)-N-methyl-4,6-dimethyl-2-pymidinamine]"
24,5.70 to 6.30,C=CCN(c1nc(C)cc(C)n1)c1ccccc1Br [compound 3]

row,pKi,Compound
1,> 6.30,"CCN(c1nc(C)cc(C)n1)c1ccc(C(C)OC)cc1SC (centres unmarked) [compound 189, N-(4-(1-methoxyethyl)-2-methylthiophenyl)-N-ethyl-4,6-dimethyl-2-pyrimidinamine]"
2,5.70 to 6.30,"CCN(c1nc(C)cc(C=O)n1)c1ccc(C(C)C)cc1Br [compound 222, N-(2-Bromo-4-(1-methylethyl)phenyl)-N-ethyl-4-formyl-6-methyl-2-pyrimidinamine]"
3,5.00 to 5.70,CCN(c1nc(C)cc(NN)n1)c1ccc(C(C)C)cc1Br [compound 146]
4,> 6.30,CCN(c1nc(C)cc(COC)n1)c1ccc(C(C)C)cc1I [compound 207]
5,> 6.30,"C#CCN(c1nc(C)cc(C)n1)c1ccc(C(C)C)cc1Br [compound 34, N-(2-Bromo-4-(1-methylethyl)phenyl)-N-propargyl4,6-dimethyl-2-pyrimidinamine]"
6,> 6.30,Cc1cc(C)nc(N(CC2CC2)c2ccc(C(C)C)cc2Br)n1 [compound 33]
7,5.00 to 5.70,"CCN(c1nc(Cl)nc(Cl)n1)c1ccc(C(C)(C)O)cc1I [compound 249, N-[2-iodo-4-dimethylhydroxymethylphenyl]-N-ethyl-4-6-dichloro-1,3,5 triazin-2-amine]"
8,> 6.30,Cc1cc(C)c2ccn(-c3ccc(C(C)C)cc3Br)c2n1 [Example 257]
9,5.00 to 5.70,CCN(c1nc(C)cc(C(=O)c2c[nH]c3ccccc23)n1)c1ccc(C(C)C)cc1Br [compound 283]
10,> 6.30,"CCN(c1nc(C)cc(-c2cccs2)n1)c1ccc(C(C)C)cc1Br [compound 31, N-(2-Bromo-4-(1-methylethyl)phenyl)-N-ethyl-6-methyl-4-(2-thienyl)-2-pyrimidinamine]"
11,> 6.30,"CCc1ccc(N(CC)c2nc(C)cc(C)n2)c(SC)c1 [compound 182, N-(4-ethyl-2-methylthiophenyl)-N-ethyl-4,6-dimethyl-2-pyrimidinamine]"
12,> 6.30,CCN(c1nc(C)cc(COc2ccccc2)n1)c1ccc(C(C)C)cc1Br [compound 209]
13,> 6.30,Cc1cc(Cl)c2ccn(-c3ccc(C(C)C)cc3Br)c2n1 [Example 259]
14,> 6.30,CCN(c1nc(C)cc(COc2ccc(OC)cc2)n1)c1ccc(C(C)C)cc1Br [compound 208]
15,5.00 to 5.70,CCN(c1nc(C)cc(COCC(=O)N2CCOCC2)n1)c1ccc(C(C)C)cc1Br [compound 229]
16,5.70 to 6.30,CCN(c1cc(OC)nc(OC)n1)c1ccc(C(C)C)cc1Br [compound 130]
17,5.70 to 6.30,CCN(c1nc(C)cc(COc2cccc(N(C)C)c2)n1)c1ccc(C(C)C)cc1Br [compound 215]
18,5.70 to 6.30,CCN(c1nc(C)nc(Cl)n1)c1ccc(C(C)C)cc1Br [compound 250]
19,> 6.30,CCN(c1nc(C)cc(COCCOC)n1)c1ccc(C(C)C)cc1Br [compound 227]
20,> 6.30,CCN(c1nc(C)cc(COCc2cc(OC)c(OC)c(OC)c2)n1)c1ccc(C(C)C)cc1Br [compound 212]
21,5.00 to 5.70,Cc1cc(C)nc(N(C)c2ccccc2C(F)(F)F)n1 [compound 54]
22,> 6.30,"CCN(c1nc(C)cc(N(C)CCO)n1)c1ccc(C(C)C)cc1Br [compound 50, N-(2-Bromo-4-(1-methylethyl)phenyl)-N-ethyl-4-methyl-6-(N-methyl-2-hydroxyethlamino)-2-pyrimidinamine]"
23,5.70 to 6.30,CCN(c1nc(C)cc(COc2cc(OC)c(OC)c(OC)c2)n1)c1ccc(C(C)C)cc1Br [compound 214]

# From patent publication US6342503B1, “1N-alkyl-n-arylpyrimidinamines and derivatives thereof” (DuPont Pharmaceuticals Company, priority 1993, dated 2002)
